Laboratory results as given in patent US11098010B2 (priority 2017, dated 2021).

These compounds were tested on HBV rcDNA in HepDE19 cells (assay: HepDE19 assay with bDNA quantitation of HBV rcDNA). Details: HepDE19 cells, inhibition of rcDNA formation, 7 day incubation, top concentration 25 μM; read-out: DE-19 bDNA EC50.
Format: cell-based, hepatitis B virus (HBV)
Experimental: HepDE19 Assay with bDNA Quantitation of HBV rcDNA:
HepDE19 cell culture system is a HepG2 (human hepatocarcinoma) derived cell line that supports HBV DNA replication and cccDNA formation in a tetracycline (Tet)-regulated manner and produces HBV rcDNA and a detectable reporter molecule dependent on the production and maintenance of cccDNA (Guo, et al., 2007, J. Virol. 81:12472-12484).
HepDE19 (50,000 cells/well) were plated in 96-well collagen-coated tissue-culture treated microtiter plates in DMEM/F12 medium supplemented with 10% fetal bovine serum, 1% penicillin-streptomycin and 1 μg/mL tetracycline and incubated in a humidified incubator at 37° C. and 5% CO2 overnight. Next day, the cells were switched to fresh medium without tetracycline and incubated for 4 hours at 37° C. and 5% CO2. The cells were treated with fresh Tet-free medium with compounds at concentrations starting at 25 μM and a serial, ½ log, 8-point, titration series in duplicate. The final DMSO concentration in the assay was 0.5%. The plates were incubated for 7 days in a humidified incubator at 37° C. and 5% CO2. Following a 7 day-incubation, the level of rcDNA present in the inhibitor-treated wells was measured using a Quantigene 2.0 bDNA assay kit (Affymetrix, Santa Clara, Calif.) with HBV specific custom probe set and manufacturers instructions. Concurrently, the effect of compounds on cell viability was assessed using replicate plates, plated at a density of 5,000 cells/well and incubated for 4 days, to determine the ATP content as a measure of cell viability using the cell-titer glo reagent (CTG; Promega Corporation, Madison, Wis.) as per manufacturer's instructions. The plates were read using a Victor luminescence plate reader (PerkinElmer Model 1420 Multilabel counter) and the relative luminescence units (RLU) data generated from each well was calculated as % inhibition of the untreated control wells and analyzed using XL-Fit module in Microsoft Excel to determine EC50 and EC90 (bDNA) and CC50 (CTG) values using a 4-parameter curve fitting algorithm.
Representative compounds of the invention were tested for their abilities to inhibit formation of relaxed circular DNA (rcDNA) in a HepDE19 assay, as described elsewhere herein.

SMILES	EC50 [µM]
O=C(NC1CSc2c(C(=O)Nc3ccc(F)c(F)c3)cccc21)OCc1ccccn1 (centres unmarked) [Compound 27, O-pyridin-2-ylmethyl, N-(7-((3,4-difluorophenyl)carbamoyl)-2,3-dihydrobenzo[b]thiophen-3-yl) carbamate]	1.4
O=C(NC1CSc2c(C(=O)Nc3ccc(F)c(Cl)c3)cccc21)OCc1ccccn1 (centres unmarked) [Compound 28, O-pyridin-2-ylmethyl, N-(7-((3-chloro-4-fluorophenyl)carbamoyl)-2,3-dihydrobenzo[b]thiophen-3-yl) carbamate]	0.76
COC(=O)NC1CSc2c(C(=O)Nc3ccc(F)c(Cl)c3)cccc21 (centres unmarked) [Compound 29, O-methyl, N-(7-((3-chloro-4-fluorophenyl)carbamoyl)-2,3-dihydrobenzo[b]thiophen-3-yl) carbamate]	1.6

Same assay, conditions: Hepatitis B virus, HepDE19, 168 h, HepDE19 cells, inhibition of rcDNA formation, 7 day incubation, top concentration 25 μM; read-out: DE-19 bDNA EC50

SMILES	EC50 [µM]
O=C(NC1CCc2c(C(=O)Nc3ccc(F)c(Cl)c3)cncc21)OCc1ccccn1 (single isomer, unassigned) [Compound 271, O-Pyridin-2-ylmethyl, N-(4-((3-chloro-4-fluorophenyl)carbamoyl)-6,7-dihydro-5H-cyclopenta[c]pyridin-7-yl)carbamate]	5.7
COC(=O)N[C@H]1CCc2c(C(=O)Nc3ccc(F)c(F)c3)cccc21 [Compound 1, O-methyl, N—(S)-(4-((3,4-difluorophenyl)carbamoyl)-2,3-dihydro-1H-inden-1-yl) carbamate]	0.64
CNC(=O)N[C@H]1CCc2c(C(=O)Nc3ccc(F)c(F)c3)cccc21 [Compound 2, (S)—N-(3,4-Difluorophenyl)-1-(3-methylureido)-2,3-dihydro-1H-indene-4-carboxamide]	1.4
O=C(N[C@H]1CCc2c(C(=O)Nc3ccc(F)c(F)c3)cccc21)OCc1ccccn1 [Compound 3, O-Pyridin-2-ylmethyl, N—(S)-(4-((3,4-difluorophenyl)carbamoyl)-2,3-dihydro-1H-inden-1-yl) carbamate]	0.5
CC(C)(C)OC(=O)N[C@H]1CCc2c(C(=O)Nc3ccc(F)c(Cl)c3)ccc(F)c21 [Compound 10, O-tert-Butyl, N—(S)-(4-((3-chloro-4-fluorophenyl)carbamoyl)-7-fluoro-2,3-dihydro-1H-inden-1-yl) carbamate]	0.8
N[C@H]1CCc2c(C(=O)Nc3ccc(F)c(Cl)c3)ccc(F)c21 [Compound 13, (S)-1-Amino-N-(3-chloro-4-fluorophenyl)-7-fluoro-2,3-dihydro-1H-indene-4-carboxamide]	> 25
COC(=O)N[C@H]1CCc2c(C(=O)Nc3ccc(F)c(Cl)c3)ccc(F)c21 [Compound 19, O-Methyl, N—(S)-(4-((3-chloro-4-fluorophenyl)carbamoyl)-7-fluoro-2,3-dihydro-1H-inden-1-yl) carbamate]	0.17
Cc1cc(NC(=O)c2cccc3c2CC[C@@H]3NC(=O)OCc2ccccn2)ccc1F [Compound 23, O-Pyridin-2-ylmethyl, N—(S)-(4-((4-fluoro-3-methylphenyl)carbamoyl)-2,3-dihydro-1H-inden-1-yl) carbamate]	0.45

Same assay, conditions: Hepatitis B virus, HepDE19, 168 h, read-out: DE-19 bDNA EC50 (μM), HepDE19 cells, inhibition of rcDNA formation, 7 day incubation, top concentration 25 μM

SMILES	EC50 [µM]
O=C1CC[C@H](COC(=O)N[C@H]2CCc3c(C(=O)Nc4ccc(F)c(Cl)c4)ccc(F)c32)N1 [Compound 9, O—((R)-5-Oxopyrrolidin-2-yl)methyl, N—((S)-4-((3-chloro-4-fluorophenyl)carbamoyl)-7-fluoro-2,3-dihydro-1H-inden-1-yl) carbamate]	0.58
COC(=O)N[C@H]1CCc2c(C(=O)Nc3ccc(F)c(C)c3)ccc(F)c21 [Compound 11, O-Methyl, N—(S)-(7-fluoro-4-((4-fluoro-3-methylphenyl)carbamoyl)-2,3-dihydro-1H-inden-1-yl) carbamate]	0.21
CNC(=O)N[C@H]1CCc2c(C(=O)Nc3ccc(F)c(C)c3)ccc(F)c21 [Compound 12, (S)-7-Fluoro-N-(4-fluoro-3-methylphenyl)-1-(3-methylureido)-2,3-dihydro-1H-indene-4-carboxamide]	0.38
O=C(N[C@H]1CCc2c(C(=O)Nc3ccc(F)c(Cl)c3)ccc(F)c21)OCCN1CCCC1=O [Compound 14, O-2-(2-Oxopyrrolidin-1-yl)ethyl, N—(S)-(4-((3-chloro-4-fluorophenyl)carbamoyl)-7-fluoro-2,3-dihydro-1H-inden-1-yl) carbamate]	0.45
O=C(N[C@H]1CCc2c(C(=O)Nc3ccc(F)c(Cl)c3)cccc21)OCc1ccccn1 [Compound 17]	0.17
O=C1CC[C@@H](COC(=O)N[C@H]2CCc3c(C(=O)Nc4ccc(F)c(Cl)c4)ccc(F)c32)N1 [Compound 18, O—((S)-5-Oxopyrrolidin-2-yl)methyl, N—((S)-4-((3-chloro-4-fluorophenyl)carbamoyl)-7-fluoro-2,3-dihydro-1H-inden-1-yl) carbamate]	0.34
CNC(=O)N[C@H]1CCc2c(C(=O)Nc3ccc(F)c(Cl)c3)ccc(F)c21 [Compound 20, (S)—N-(3-Chloro-4-fluorophenyl)-7-fluoro-1-(3-methylureido)-2,3-dihydro-1H-indene-4-carboxamide]	0.32
O=C1CC[C@H](COC(=O)N[C@H]2CCc3c(C(=O)Nc4ccc(F)c(Cl)c4)cccc32)N1 [Compound 21, O—((R)-5-Oxopyrrolidin-2-yl)methyl, N—((S)-4-((3-chloro-4-fluorophenyl)carbamoyl)-2,3-dihydro-1H-inden-1-yl) carbamate]	0.58
O=C1CC[C@@H](COC(=O)N[C@H]2CCc3c(C(=O)Nc4ccc(F)c(Cl)c4)cccc32)N1 [Compound 22, O—((S)-5-Oxopyrrolidin-2-yl)methyl, N—((S)-4-((3-chloro-4-fluorophenyl)carbamoyl)-2,3-dihydro-1H-inden-1-yl) carbamate]	0.44
Cc1cc(NC(=O)c2cccc3c2CC[C@@H]3NC(=O)OC[C@H]2CCC(=O)N2)ccc1F [Compound 24, O—((R)-5-Oxopyrrolidin-2-yl)methyl, N—((S)-4-((4-fluoro-3-methylphenyl)carbamoyl)-2,3-dihydro-1H-inden-1-yl) carbamate]	1.5
Cc1cc(NC(=O)c2cccc3c2CC[C@@H]3NC(=O)OC[C@@H]2CCC(=O)N2)ccc1F [Compound 25, O—((S)-5-Oxopyrrolidin-2-yl)methyl, N—((S)-4-((4-fluoro-3-methylphenyl)carbamoyl)-2,3-dihydro-1H-inden-1-yl) carbamate]	1.1
O=C(N[C@H]1CCc2c(C(=O)Nc3ccc(F)c(Cl)c3)ccc(F)c21)OCC(=O)N1CCCC1 [Compound 26, O-2-Oxo-2-(pyrrolidin-1-yl)ethyl, N—(S)-(4-((3-chloro-4-fluorophenyl)carbamoyl)-7-fluoro-2,3-dihydro-1H-inden-1-yl) carbamate]	0.44

Same assay, conditions: read-out: DE-19 bDNA EC50; HepDE19 cells, inhibition of rcDNA formation, 7 day incubation, top concentration 25 μM

SMILES	EC50 [µM]
COC(=O)NC1COc2c(C(=O)Nc3ccc(F)c(F)c3)cccc21 (centres unmarked) [Compound 4, O-Methyl, N-(7-((3,4-difluorophenyl)carbamoyl)-2,3-dihydrobenzofuran-3-yl) carbamate]	5.3
COC(=O)NC1COc2c(C(=O)Nc3ccc(F)c(F)c3)cccc21 (centres unmarked) [Compound 5, O-Methyl, N-(7-((3,4-difluorophenyl)carbamoyl)-2,3-dihydrobenzofuran-3-yl) carbamate]	14
COC(=O)NC1COc2c(C(=O)Nc3ccc(F)c(F)c3)cccc21 (centres unmarked) [Compound 6, O-Methyl, N-(7-((3,4-difluorophenyl)carbamoyl)-2,3-dihydrobenzofuran-3-yl) carbamate]	1.3
